For data set [1], the system named is cellular labile iron pools. Description: Fluorimetric calcein-AM assay of intracellular iron chelation. Particulars: 10 μmol·L^−1. It counts as cell-based. The method, then: Iron chelation efficiency of the compounds at a concentration of 10 μmol·L^−1 was determined via 3 methods: (1) the calcein assay; (2) the ability of the ligands to induce ^59Fe mobilization from cells prelabeled with ^59Fe-transferrin; and (3) the efficacy of these agents to inhibit the uptake of ^59Fe from ^59Fe-transferrin [22, 38–40].
The fluorimetric calcein-AM assay was performed by established methods, as described previously. The Fe chelation efficiency of the metabolites in cells was expressed as a percentage of that of the parent chelator, Dp44mT or DpC (100%). For studies assessing the ability of these agents to induce ^59Fe mobilization and inhibit ^59Fe uptake from ^59Fe-transferrin by cells, human transferrin (Sigma-Aldrich, Germany) was labeled with ^59Fe (PerkinElmer, MA, USA) to generate ^59Fe-transferrin at a final specific activity of 500 pCi/pmol Fe, as previously described. The unbound ^59Fe was removed by exhaustive vacuum dialysis against a large excess of 0.15 M NaCl buffered to pH 7.4 with 1.4% NaHCO3 by standard methods.

For a further data set, the system named is MCF-7 cells. Description: In-vitro metabolism of the drugs in MCF-7 cells (HPLC-MS). It is filed as in vitro ADME, human. The settings on record: MCF-7, 10 μmol·L^−1, 12 h, 37°C. The method, then: (§1) Breast cancer cells (MCF-7) and H9c2 heart-derived myoblasts were seeded in 100-mm Petri dishes (1,000,000 cells/dish) for 24 h/37°C. Freshly prepared stock solutions of Dp44mT and DpC in DMSO (Sigma-Aldrich, Germany) were diluted in culture medium to the required working concentration.
(§2) The cells were incubated for 12 h (37°C) with either Dp44mT or DpC at a concentration of 10 μmol·L^−1. After this incubation, the cells were harvested, washed twice with ice-cold PBS buffer, centrifuged (790 x g) and precipitated with acetonitrile (200 μL/10^6 cells) prior to the analysis. The overlaying medium was also analyzed to search for possible metabolites. […] All samples were analyzed using HPLC-MS as described below in the Section: HPLC-MS method to identify metabolites of the drugs.
(§3) To search for the metabolites, plasma was precipitated with methanol or acetonitrile (plasma/solvent ratio – 1:3, v/v), treated using solid phase extraction (SPE; Discovery DSC-PH, Supelco, PA, U.S.A.), or liquid-liquid extraction with various solvents (ethyl acetate, toluene, dichloromethane). […] These samples were then analyzed using HPLC-MS with ion trap mass analyzer implementing the settings described previously with minor modifications (for details of the analyses see Supplementary Material, part 2.1). […]

The test system of data set [2] is H9c2 heart-derived myoblasts. Description: In-vitro metabolism of the drugs in H9c2 cells (HPLC-MS). It is filed as in vitro ADME, rat. Particulars: H9c2, 10 μmol·L^−1, 12 h, 37°C. The method, then: as §1, §2, §3
Details of data set [3]: method as in PMID 21658021. Particulars: cited from earlier work.
Data set [4] has as its system oxyhemoglobin in red blood cells. Further details: method as in PMID 22508546. Particulars: cited from earlier work.

Consider `CN(C)C(=S)NN=C(c1ccccn1)c1ccccn1` [Dp44mT, di(2-pyridyl)ketone 4,4-dimethyl-3-thiosemicarbazone], for which, in data set [1], the “intracellular Fe chelation efficacy (in words)” value is given as “high intracellular chelation efficacy”. The “metabolism in cancer cells” value with MCF-7 cells was “do not undergo significant metabolism”. Also, the “metabolism in heart-derived myoblasts” value in data set [2] is “do not undergo significant metabolism”. In data set [3], the “toxicity after oral administration” value was “toxic after oral administration”.

For `CN(C(=S)NN=C(c1ccccn1)c1ccccn1)C1CCCCC1` [DpC, di(2-pyridyl)ketone 4-cyclohexyl-4-methyl-3-thiosemicarbazone], in data set [1], the “intracellular Fe chelation efficacy (in words)” value is “comparable to Dp44mT”. In the data set with MCF-7 cells, the “metabolism in cancer cells” value is recorded as “do not undergo significant metabolism”. The “metabolism in heart-derived myoblasts” value in data set [2] is reported as “do not undergo significant metabolism”. The “oxidation of oxyhemoglobin to methemoglobin” value in data set [4] is listed as “does not induce oxidation of oxyhemoglobin to methemoglobin”.
